One experiment concerns the target T1, CRAC channel (Homo sapiens, UniProt Q96D31).
T1 construct: endogenous in cells; host or cells: HEK293 (ECACC), untransfected
Kind of experiment: HEK Calcium Influx Assay (FLIPR), inhibition of store-operated Ca2+ entry after thapsigargin store depletion. The settings on record: 10 μM compound, HEK293 cells, read-out: % inhib. [@ 10 μM] FLIPR. The format is cell-based. As for the experimental part: The effect of compounds of the invention on intracellular [Ca^2+] was tested in the HEK293 cell line (ECACC).
HEK293 cells were cultured in DMEM/F12/Glutamax (Gibco) containing 10% FCS (Gibco), and maintained at 37° C., 5% CO2. Cell were split twice a week [3*10^6 (Mon-Thu) and 1*10^6 (Thu-Mon) cells/50 ml medium in 1-175 ZK culture flasks, respectively]. Twenty four hours pre-experiment, cells were seeded on 96 well plates (Poly-D-Lysine 96 well Black/Clear Plate, BD Biocoat REF 356640) at a density of 40,000 cells/well in DMEM/F12 (Gibco) containing 10% FCS (Gibco), and maintained at 37° C., 5% CO2.
Prior to store-depletion, cell culture medium was removed and cells were loaded with the Calcium-sensitive fluorescent dye comprised within the Calcium-4-assay kit (Molecular Devices) in nominally Ca^2+-free HBS buffer (140 mM NaCl, 4 mM KCl, 0.2 mM MgCl2, 11 mM D-glucose, and 10 mM HEPES, pH 7.4) according to manufacturer's instruction for 60 min at 37° C., 5% CO2.
Passive depletion of intracellular Ca^2+-stores was then triggered by employing the SERCA inhibitor thapsigargin (2 μM final) for 10 min in the dark (RT). To prevent immediate Ca^2+-entry via the activated store-operated channels (SOCs), cells were maintained in Ca^2+-free HBS buffer comprising 100 μM EGTA during store-depletion.
Intracellular changes in [Ca^2+] were subsequently monitored with the FLIPR device (Molecular Devices). In brief, baseline imaging post-store depletion was allowed for 1 min before adjusting the extracellular buffer to 3 mM CaCl2. Increases in intracellular [Ca^2+] due to pre-activated SOC channels were monitored for 15 min until intracellular Ca^2+ levels had declined into a steady-state. Finally, compounds were administered, and Ca^2+ signals were recorded for additional 10 min.
Inhibition of endogenous SOC in HEK293 cells was quantified employing the average Ca^2+ signal measured from 9.5-10 min post-administration. Zero percent inhibition (MAX) was defined as the Ca^2+ signal recorded from wells to which DMSO-only had been added instead of compound. Hundred percent inhibition (MIN) was defined as the signal obtained from wells in which cells haven't been treated with TG prior to Ca^2+ addition and to which DMSO-only had been added instead of compound. For routine IC50 determinations of compounds, 8 concentrations of a serial dilution (1:3.16) were tested, starting off from 10 μM. Reliable IC50's could consequently be determined only, if they were at least sub 2.5-3 μM.

In experiment [1] the test system is Interleukin-2 (IL-2) production/release in Jurkat T cells. Kind of experiment: Jurkat IL-2 Production Assay (PHA-stimulated, IL-2 AlphaLisa). In kind it is cell-based. The settings on record: Homo sapiens, PHA 15 μg/ml, 22 h, inhibition of IL-2 production. As for the experimental part: The effect of compounds of the invention on Interleukin-2 (IL-2) production/release was tested in the Jurkat T cell line (ECACC) clone E6-1.
Jurkat T cells were cultured in DMEM/F12/Glutamax (Gibco) containing 10% FCS (Gibco), and maintained at 37° C., 5% CO2. Cells were split twice a week [5*10^6 (Mon-Thu) and 1*10^7 (Thu-Mon) cells/50 ml medium in 1-175 ZK culture flasks, respectively].
Prior to experiment, cells were seeded on 96 well plates (Cellstar 96 Well; Cat No. 655180, Greiner bio-one) at a density of 5*10^5 cells/well in DMEM/F12/Glutamax (Gibco) containing 10% FCS (Gibco), and incubated for 60 min at 37° C., 5% CO2. Subsequently, compounds were added and cells were allowed to incubate for 30 min at 37° C., 5% CO2. Cells were then stimulated with 15 μg/ml Phyto-hemagglutinin (PHA; Sigma) for 22 hours at 37° C., 5% CO2.
Before sampling of the supernatants, cells were spun down (200*g/5 min/RT). The amount of IL-2 released into the supernatant was quantified with the human IL-2 AlphaLisa kit (Perkin Elmer) according to manufacturer's instructions. Luminescence proximity measurements were carried out in the Synergy H4 reader (BioTek) employing the fluorescence setting of the reader (ex: 680/30 nm; em: 620/40 nm).
Inhibition of IL-2 production/release in/from Jurkat T cells was quantified as follows: Zero percent inhibition (MAX) was defined as the [IL-2] determined in supernatants derived from cells to which PHA & DMSO-only had been added instead of compound. Hundred percent inhibition (MIN) was defined as the [IL-2] determined in supernatants derived from cells that had been pre-treated with 1 μM CyclosporineA (Sigma) before the addition of 15 μg/ml PHA.
For routine IC50 determinations of compounds, 8 concentrations of a serial dilution (1:3.16) were tested, starting off from 10 μM.

Structures are written as SMILES.

T1 sequence (Q96D31 whole entry): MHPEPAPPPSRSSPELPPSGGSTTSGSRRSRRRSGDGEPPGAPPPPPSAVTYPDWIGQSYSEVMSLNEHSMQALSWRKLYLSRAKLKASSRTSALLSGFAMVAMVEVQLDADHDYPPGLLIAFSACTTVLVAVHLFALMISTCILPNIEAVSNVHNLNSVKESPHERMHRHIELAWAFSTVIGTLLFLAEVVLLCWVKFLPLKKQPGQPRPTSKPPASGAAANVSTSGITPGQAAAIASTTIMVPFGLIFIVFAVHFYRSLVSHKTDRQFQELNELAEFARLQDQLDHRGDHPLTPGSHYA

With `Cc1sc(-c2cccnc2)nc1N1CCc2[nH]c(-c3c(F)cccc3F)cc2C1=O` [Example 1, 2-(2,6-Difluoro-phenyl)-5-(5-methyl-2-pyridin-3-yl-thiazol-4-yl)-1,5,6,7-tetrahydro-pyrrolo[3,2-c]pyridin-4-one], the inhibition at 10 µM at CRAC channel was 50 to 70%. For the same molecule, the IC50 in experiment [1] was 1 to 5 µM.
As to `Cc1sc(-c2cccnc2)nc1N1CCc2[nH]c(-c3c(F)cccc3F)cc2C1` [Example 2, 4-[2-(2,6-Difluoro-phenyl)-4,5,6,7-tetrahydro-1H-pyrrolo[3,2-c]pyridin-5-yl]-5-methyl-2-pyridin-3-yl-thiazole], the inhibition at 10 µM at CRAC channel is more than 70%. The IC50 in experiment [1] was less than 0.5 µM.
Take `Cc1cc(Cl)ncc1N1CCc2[nH]c(-c3c(F)cccc3F)cc2C1` [Example 4, 5-(6-Chloro-4-methyl-pyridin-3-yl)-2-(2,6-difluoro-phenyl)-4,5,6,7-tetrahydro-1H-pyrrolo[3,2-c]pyridine]: the inhibition at 10 µM at CRAC channel was more than 70%. For the same molecule, the IC50 in experiment [1] is less than 0.5 µM.
Regarding `Cc1sc(-c2ccccn2)nc1N1CCc2[nH]c(-c3c(F)cccc3F)cc2C1` [Example 6, 4-[2-(2,6-Difluoro-phenyl)-4,5,6,7-tetrahydro-1H-pyrrolo[3,2-c]pyridin-5-yl]-5-methyl-2-pyridin-2-yl-thiazole], the inhibition at 10 µM at CRAC channel was in the range of 50 to 70%. Moreover, the IC50 in experiment [1] was less than 0.5 µM.
As for `Fc1cccc(F)c1-c1cc2c([nH]1)CCN(c1cccc(C(F)(F)F)c1)C2` [Example 7, 2-(2,6-Difluoro-phenyl)-5-[3-(trifluoromethyl)phenyl]-4,5,6,7-tetrahydro-1H-pyrrolo[3,2-c]pyridine], the inhibition at 10 µM on CRAC channel is less than 50%. Further, the IC50 in experiment [1] was 1 to 5 µM.
For `Cc1ccc(-c2nccs2)cc1N1CCc2[nH]c(-c3c(F)cccc3F)cc2C1` [Example 8, 2-[3-[2-(2,6-Difluoro-phenyl)-4,5,6,7-tetrahydro-1H-pyrrolo[3,2-c]pyridin-5-yl]-4-methyl-phenyl]-thiazole], the inhibition at 10 µM at CRAC channel is more than 70%. Further, the IC50 in experiment [1] is less than 0.5 µM.
`Fc1cccc(F)c1-c1cc2c([nH]1)CCN(c1cc3c(cc1Cl)OC(F)(F)O3)C2` [Example 9, 5-(6-Chloro-2,2-difluoro-1,3-benzodioxol-5-yl)-2-(2,6-difluoro-phenyl)-4,5,6,7-tetrahydro-1H-pyrrolo[3,2-c]pyridine]: the inhibition at 10 µM on CRAC channel was less than 50%. In addition, the IC50 in experiment [1] lay within 1 to 5 µM.
On to `Cc1ccncc1N1CCc2[nH]c(-c3c(F)cccc3F)cc2C1` [Example 10, 2-(2,6-Difluoro-phenyl)-5-(4-methyl-pyridin-3-yl)-4,5,6,7-tetrahydro-1H-pyrrolo[3,2-c]pyridine], for which the inhibition at 10 µM at CRAC channel is more than 70%. The IC50 in experiment [1] lay in the range of 1 to 5 µM.
With `Cc1cc(Cl)ccc1N1CCc2[nH]c(-c3c(F)cccc3F)cc2C1` [Example 11, 5-(4-Chloro-2-methyl-phenyl)-2-(2,6-difluoro-phenyl)-4,5,6,7-tetrahydro-1H-pyrrolo[3,2-c]pyridine], the inhibition at 10 µM at CRAC channel was less than 50%. In addition, the IC50 in experiment [1] lay in the range of 0.5 to 1 µM.
Turning to `Cc1cc(C#N)ccc1N1CCc2[nH]c(-c3c(F)cccc3F)cc2C1` [Example 12, 4-[2-(2,6-Difluoro-phenyl)-4,5,6,7-tetrahydro-1H-pyrrolo[3,2-c]pyridin-5-yl]-3-methyl-benzonitrile], the inhibition at 10 µM on CRAC channel lay in the range of 50 to 70%. Moreover, in experiment [1], the IC50 is less than 0.5 µM.
Turning to `Cc1sc(-c2ncco2)nc1N1CCc2[nH]c(-c3c(F)cccc3Cl)cc2C1` [Example 62, 2-[4-[2-(2-Chloro-6-fluoro-phenyl)-4,5,6,7-tetrahydro-1H-pyrrolo[3,2-c]pyridin-5-yl]-5-methyl-thiazol-2-yl]-oxazole], on CRAC channel, the inhibition at 10 µM is more than 70%.
On the same count and under the same terms, the same measure for `Cc1cc(N2CCc3[nH]c(-c4c(F)cccc4Cl)cc3C2)n(C)n1` [Example 63, 2-(2-Chloro-6-fluoro-phenyl)-5-(2,5-dimethyl-2H-pyrazol-3-yl)-4,5,6,7-tetrahydro-1H-pyrrolo[3,2-c]pyridine]: more than 70%; for `CNC(=O)c1ccc(N2CCc3[nH]c(-c4c(F)cccc4F)cc3C2)c(C)c1` [Example 80, 4-[2-(2,6-Difluoro-phenyl)-4,5,6,7-tetrahydro-1H-pyrrolo[3,2-c]pyridin-5-yl]-N,3-dimethyl-benzamide]: more than 70%.
In the case of `Cc1cc(C(=O)N(C)C)ccc1N1CCc2[nH]c(-c3c(F)cccc3F)cc2C1` [Example 81, 4-[2-(2,6-Difluoro-phenyl)-4,5,6,7-tetrahydro-1H-pyrrolo[3,2-c]pyridin-5-yl]-N,N,3-trimethyl-benzamide], the inhibition at 10 µM at CRAC channel is more than 70%.
Turning to `COc1cnc(C(F)(F)F)nc1N1CCc2[nH]c(-c3c(F)cccc3F)cc2C1` [Example 84, 2-(2,6-Difluoro-phenyl)-5-[5-methoxy-2-(trifluoromethyl)-pyrimidin-4-yl]-4,5,6,7-tetrahydro-1H-pyrrolo[3,2-c]pyridine], at CRAC channel, the inhibition at 10 µM is 50 to 70%.
The same measure, in the same setting: the same measure for `Cc1sc(-c2cccnc2)nc1N1CCc2[nH]c(-c3c(F)cccc3F)c(CO)c2C1` [Example 85, [2-(2,6-Difluoro-phenyl)-5-(5-methyl-2-pyridin-3-yl-thiazol-4-yl)-4,5,6,7-tetrahydro-1H-pyrrolo[3,2-c]pyridin-3-yl]-methanol]: more than 70%.
Turning to `Cc1cc(S(C)(=O)=O)ncc1N1CCc2[nH]c(-c3snnc3C)cc2C1` [Example 89, 4-Methyl-5-[5-(4-methyl-6-methylsulfonyl-pyridin-3-yl)-4,5,6,7-tetrahydro-1H-pyrrolo[3,2-c]pyridin-2-yl]-[1,2,3]thiadiazole], at CRAC channel, the inhibition at 10 µM lay within 50 to 70%.
Consider `Cc1c(F)cncc1N1CCc2[nH]c(-c3c(F)cccc3F)cc2C1` [Example 94, 2-(2,6-Difluoro-phenyl)-5-(5-fluoro-4-methyl-pyridin-3-yl)-4,5,6,7-tetrahydro-1H-pyrrolo[3,2-c]pyridine], for which, at CRAC channel, the inhibition at 10 µM was more than 70%.
In the case of `Cc1cc(N)ncc1N1CCc2[nH]c(-c3c(F)cccc3F)cc2C1` [Example 95, [5-[2-(2,6-Difluoro-phenyl)-4,5,6,7-tetrahydro-1H-pyrrolo[3,2-c]pyridin-5-yl]-4-methyl-pyridin-2-yl]-amine], on CRAC channel, the inhibition at 10 µM was more than 70%.
Consider `COc1ncccc1-c1cc2c([nH]1)CCN(c1cnc(S(C)(=O)=O)cc1C)C2` [Example 98, 2-(2-Methoxy-pyridin-3-yl)-5-(4-methyl-6-methylsulfonyl-pyridin-3-yl)-4,5,6,7-tetrahydro-1H-pyrrolo[3,2-c]pyridine], for which the inhibition at 10 µM at CRAC channel is more than 70%.
As for `CCn1nc(N2CCc3[nH]c(-c4c(F)cccc4F)cc3C2)cc1C1(C(F)(F)F)CC1` [Example 125, 2-(2,6-Difluoro-phenyl)-5-[1-ethyl-5-[1-(trifluoromethyl)-cyclopropyl]-1H-pyrazol-3-yl]-4,5,6,7-tetrahydro-1H-pyrrolo[3,2-c]pyridine], the inhibition at 10 µM at CRAC channel was more than 70%.

Values taken from patent publication US20160151337A1, “ANNELATED PYRROLES AND THEIR USE AS CRAC INHIBITORS” (Grünenthal GmbH, priority 2013, published 2016).
